The record followed here is patent publication US9315491B2 (DEVELOPMENT CENTER FOR BIOTECHNOLOGY, priority 2009, dated 2016).

Chain of recombinant mTOR (P42345 1360-2549): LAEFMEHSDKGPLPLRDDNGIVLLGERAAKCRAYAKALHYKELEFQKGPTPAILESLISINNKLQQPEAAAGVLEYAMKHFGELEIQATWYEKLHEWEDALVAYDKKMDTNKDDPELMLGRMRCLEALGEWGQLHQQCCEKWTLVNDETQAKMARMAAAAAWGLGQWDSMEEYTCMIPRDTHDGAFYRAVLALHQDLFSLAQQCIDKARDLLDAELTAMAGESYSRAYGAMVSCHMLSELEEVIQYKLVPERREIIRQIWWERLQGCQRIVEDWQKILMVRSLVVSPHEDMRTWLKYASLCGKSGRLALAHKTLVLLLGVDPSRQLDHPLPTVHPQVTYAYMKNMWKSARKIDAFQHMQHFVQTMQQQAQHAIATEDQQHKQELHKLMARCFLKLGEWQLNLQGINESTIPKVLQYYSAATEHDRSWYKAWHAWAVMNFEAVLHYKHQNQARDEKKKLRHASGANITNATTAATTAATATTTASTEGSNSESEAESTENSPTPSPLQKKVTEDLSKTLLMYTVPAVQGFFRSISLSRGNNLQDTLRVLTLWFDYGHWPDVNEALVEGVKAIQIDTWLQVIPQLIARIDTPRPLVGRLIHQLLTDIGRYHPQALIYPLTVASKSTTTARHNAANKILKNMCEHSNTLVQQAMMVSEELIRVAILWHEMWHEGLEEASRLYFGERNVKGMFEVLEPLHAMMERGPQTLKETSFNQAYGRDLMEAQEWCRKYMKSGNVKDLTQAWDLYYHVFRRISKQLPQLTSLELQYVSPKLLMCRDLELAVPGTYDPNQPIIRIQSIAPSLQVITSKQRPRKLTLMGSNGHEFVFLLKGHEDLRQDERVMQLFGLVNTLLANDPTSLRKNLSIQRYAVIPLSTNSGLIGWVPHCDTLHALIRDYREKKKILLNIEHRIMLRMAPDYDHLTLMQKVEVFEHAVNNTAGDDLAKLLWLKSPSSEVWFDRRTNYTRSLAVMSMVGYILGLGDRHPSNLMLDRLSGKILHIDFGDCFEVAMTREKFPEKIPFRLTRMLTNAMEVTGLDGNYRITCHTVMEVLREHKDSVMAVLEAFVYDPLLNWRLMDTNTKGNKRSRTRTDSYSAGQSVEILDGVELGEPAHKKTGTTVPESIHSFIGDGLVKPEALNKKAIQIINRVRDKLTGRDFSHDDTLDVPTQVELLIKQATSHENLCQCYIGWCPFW

The first experiment has as its target recombinant mTOR (Homo sapiens (Human), UniProt P42345). In words: mTOR kinase assay (33P incorporation into 4EBP1). The format is biochemical. As to conditions: compound at 10 μM, 10 μM ATP. The essentials:
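Recombinant human mTOR (50 ng) phosphorylated His-tagged 4EBP1 (300 ng) with 10 μM ATP plus [γ-33P]-ATP in HEPES pH 7.5, MnCl2, EGTA and DTT for 30 min at 30° C. Labelled 4EBP1 was filter-captured and counted. IC50 was derived from eight-point duplicate dilution series.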
As to `CSc1cnc(-c2ccc(NC(=O)Nc3ccc(OCCN(C)C)cc3)cc2)nc1N1CCOCC1` [MTR-0343, 1-[4-(2-Dimethylamino-ethoxy)-phenyl]-3-[4-(5-methylsulfanyl-4-morpholin-4-yl-pyrimidin-2-yl)-phenyl]-urea], the inhibition at 10 µM worked out at 92%.

With `COc1cnc(-c2ccc(NC(=O)Nc3ccc(OCCN(C)C)cc3)cc2)nc1N1CCOCC1` [MTR-0312, 1-[4-(2-Dimethylamino-ethoxy)-phenyl]-3-[4-(5-methoxy-4-morpholin-4-yl-pyrimidin-2-yl)-phenyl]-urea], the inhibition at 10 µM stood at 94%. The same measure, in the same setting: to `COc1cnc(-c2cccc(O)c2)nc1N1CCOCC1` [MTR-0116, 3-(5-Methoxy-4-morpholin-4-yl-pyrimidin-2-yl)-phenol] belongs 81%. Same read-out and setting: to `CSc1c(Cl)nc(-c2ccc(NC(=O)O)cc2)nc1N1CCOCC1` [MTR-0307, [4-(4-Chloro-5-methylsulfanyl-6-morpholin-4-yl-pyrimidin-2-yl)-phenyl]-carbamic acid] belongs 82%; to `COc1cnc(-c2ccc(NC(=S)Nc3ccc(N4CCOCC4=O)cc3)cc2)nc1N1CCOCC1` [MTR-0335, 1-[4-(5-Methoxy-4-morpholin-4-yl-pyrimidin-2-yl)-phenyl]-3-[4-(3-oxo-morpholin-4-yl)-phenyl]-thiourea], 89%; to `CSc1c(Cl)nc(-c2ccc(NC(=O)Nc3ccc(Br)nc3)cc2)nc1N1CCOCC1` [MTR-0291, 1-(6-Bromo-pyridin-3-yl)-3-[4-(4-chloro-5-methylsulfanyl-6-morpholin-4-yl-pyrimidin-2-yl)-phenyl]-urea], 89%. Consider `CCOC(=O)c1ccc(NC(=O)Nc2ccc(-c3nc(Cl)c(SC)c(N4CCOCC4)n3)cc2)cc1` [MTR-0212, 4-{3-[4-(4-Chloro-5-methylsulfanyl-6-morpholin-4-yl-pyrimidin-2-yl)-phenyl]-ureido}-benzoic acid ethyl ester], for which the inhibition at 10 µM is 85%.

Another experiment deals with PI3K (p110α/p85α) (Homo sapiens (Human), UniProt P42336). Description: PI3K HTRF enzyme assay, p110α/p85α. Format: biochemical. The note with it: read-out: % inhibition @ 500 nM p110α; compound at 500 nM, 10 μM ATP. The protocol: Recombinant PI3K (p110α/p85α) and PI3K (p110β/p85α) were from Millipore. […] Briefly, the compounds of interest dissolved in 100% DMSO were dispensed in all wells, following which the mixture of PIP2 and enzyme was added. PI3K (p110α/p85α) and PI3K (p110β/p85α) enzyme reactions were initiated in the presence of 10 μM and 100 μM ATP, respectively, and incubated for 30 min at room temperature. STOP solution prepared 2 hours prior to use was added to stop reactions, and mixed well. Detection solution prepared 2 hours prior to use was added, and incubated at room temperature for 17 hours in the dark. […] HTRF ration was calculated as follows: […]
Chain of PI3K (p110α/p85α) (P42336 whole entry, species assumed): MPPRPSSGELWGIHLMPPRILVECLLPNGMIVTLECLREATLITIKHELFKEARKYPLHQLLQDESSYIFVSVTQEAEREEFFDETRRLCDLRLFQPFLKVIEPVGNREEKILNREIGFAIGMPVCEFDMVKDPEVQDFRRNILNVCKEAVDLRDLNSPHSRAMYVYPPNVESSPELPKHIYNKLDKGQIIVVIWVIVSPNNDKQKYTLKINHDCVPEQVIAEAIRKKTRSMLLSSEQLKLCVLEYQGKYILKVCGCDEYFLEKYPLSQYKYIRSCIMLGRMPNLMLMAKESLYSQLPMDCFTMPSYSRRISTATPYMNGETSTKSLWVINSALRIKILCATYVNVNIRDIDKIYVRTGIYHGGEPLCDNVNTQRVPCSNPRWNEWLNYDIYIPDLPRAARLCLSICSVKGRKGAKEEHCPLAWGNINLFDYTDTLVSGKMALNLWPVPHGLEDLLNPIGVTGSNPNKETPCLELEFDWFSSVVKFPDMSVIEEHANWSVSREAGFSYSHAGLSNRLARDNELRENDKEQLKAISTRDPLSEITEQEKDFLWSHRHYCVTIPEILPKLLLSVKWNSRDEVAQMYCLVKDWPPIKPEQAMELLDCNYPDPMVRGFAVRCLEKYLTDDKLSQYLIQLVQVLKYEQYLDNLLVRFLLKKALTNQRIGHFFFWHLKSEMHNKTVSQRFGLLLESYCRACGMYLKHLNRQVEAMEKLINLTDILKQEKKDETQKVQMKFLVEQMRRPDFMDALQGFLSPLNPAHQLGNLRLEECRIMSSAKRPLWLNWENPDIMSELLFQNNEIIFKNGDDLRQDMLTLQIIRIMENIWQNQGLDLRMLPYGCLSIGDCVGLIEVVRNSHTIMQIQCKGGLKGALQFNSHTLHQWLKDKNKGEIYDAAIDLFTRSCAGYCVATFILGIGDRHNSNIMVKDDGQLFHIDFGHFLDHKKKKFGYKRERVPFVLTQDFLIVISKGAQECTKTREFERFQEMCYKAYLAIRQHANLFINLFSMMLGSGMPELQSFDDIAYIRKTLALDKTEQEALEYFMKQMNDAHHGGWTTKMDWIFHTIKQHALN
Chain of PI3K (p110α/p85α) (P27986 whole entry partner, species assumed): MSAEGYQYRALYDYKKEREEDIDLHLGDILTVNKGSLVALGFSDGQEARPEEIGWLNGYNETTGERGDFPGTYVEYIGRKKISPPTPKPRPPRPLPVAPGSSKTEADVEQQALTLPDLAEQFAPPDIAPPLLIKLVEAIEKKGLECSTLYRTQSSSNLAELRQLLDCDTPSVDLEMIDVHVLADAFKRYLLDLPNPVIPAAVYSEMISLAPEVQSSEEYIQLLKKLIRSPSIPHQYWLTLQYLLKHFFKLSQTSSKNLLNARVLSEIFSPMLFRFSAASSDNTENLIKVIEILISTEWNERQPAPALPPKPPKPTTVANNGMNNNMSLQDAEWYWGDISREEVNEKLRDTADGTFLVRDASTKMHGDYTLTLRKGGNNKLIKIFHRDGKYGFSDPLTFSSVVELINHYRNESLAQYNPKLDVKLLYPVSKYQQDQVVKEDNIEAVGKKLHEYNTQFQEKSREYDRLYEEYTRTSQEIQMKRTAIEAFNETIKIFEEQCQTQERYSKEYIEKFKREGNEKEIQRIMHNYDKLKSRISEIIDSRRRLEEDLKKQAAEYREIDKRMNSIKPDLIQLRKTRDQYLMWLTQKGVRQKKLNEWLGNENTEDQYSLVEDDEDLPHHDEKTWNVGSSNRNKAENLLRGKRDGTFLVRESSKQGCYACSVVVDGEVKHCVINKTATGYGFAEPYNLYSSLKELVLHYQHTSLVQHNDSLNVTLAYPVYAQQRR
Consider `CCOC(=O)c1nc(-c2ccc(NC(=O)Nc3ccc(S(N)(=O)=O)cc3)cc2)nc(N2CCOCC2)c1OCC` [MTR-0273, 5-Ethoxy-6-morpholin-4-yl-2-{4-[3-(4-sulfamoyl-phenyl)-ureido]-phenyl}-pyrimidine-4-carboxylic acid ethyl ester], for which the inhibition at 0.5 µM was found to be 50.2%. Same read-out and setting: to `COc1cnc(-c2ccc(NC(=O)Nc3ccc(F)cc3)cc2)nc1N1CCOCC1` [MTR-0152, 1-(4-Fluoro-phenyl)-3-[4-(5-methoxy-4-morpholin-4-yl-pyrimidin-2-yl)-phenyl]-urea] belongs 83%.

Consider `COc1cnc(-c2ccc(NC(=O)Nc3cccc(C(N)=O)c3)cc2)nc1N1CCOCC1` [MTR-0313, 3-{3-[4-(5-Methoxy-4-morpholin-4-yl-pyrimidin-2-yl)-phenyl]-ureido}-benzamide], for which the inhibition at 0.5 µM was 86.9%. On the same count and under the same terms, to `CSc1c(Cl)nc(-c2ccc(NC(=O)Nc3ccc(S(C)(=O)=O)cc3)cc2)nc1N1CCOCC1` [MTR-0387, 1-[4-(4-Chloro-5-methylsulfanyl-6-morpholin-4-yl-pyrimidin-2-yl)-phenyl]-3-(4-methanesulfonyl-phenyl)-urea] belongs 83.1%. The same measure, in the same setting: the same measure for `CCOC(=O)c1nc(-c2ccc(NC(=O)Nc3ccc(C(=O)N4CCOCC4)cc3)cc2)nc(N2CCOCC2)c1OCC` [MTR-0278, 5-Ethoxy-2-(4-{3-[4-(morpholine-4-carbonyl)-phenyl]-ureido}-phenyl)-6-morpholin-4-yl-pyrimidine-4-carboxylic acid ethyl ester]: 58.6%; for `CSc1c(-c2ccncc2)nc(-c2ccc(NC(=O)Nc3ccc(N4CCOCC4=O)cc3)cc2)nc1N1CCOCC1` [MTR-0391, 1-[4-(5-Methylsulfanyl-4-morpholin-4-yl-6-pyridin-4-yl-pyrimidin-2-yl)-phenyl]-3-[4-(3-oxo-morpholin-4-yl)-phenyl]-urea]: 51.7%; for `COc1cnc(-c2ccc(NC(=O)Nc3ccc(C(=O)NCCCN(C)C)cc3)cc2)nc1N1CCOCC1` [MTR-0427, N-(3-Dimethylamino-propyl)-4-{3-[4-(5-methoxy-4-morpholin-4-yl-pyrimidin-2-yl)-phenyl]-ureido}-benzamide]: 71.1%. Same read-out and setting: to `COc1cnc(-c2ccc(NC(=O)Nc3cccc(NC(C)=O)c3)cc2)nc1N1CCOCC1` [MTR-0426, N-(3-{3-[4-(5-Methoxy-4-morpholin-4-yl-pyrimidin-2-yl)-phenyl]-ureido}-phenyl)-acetamide] belongs 58.4%; to `COc1cnc(-c2ccc(NC(=O)Nc3ccc(N4CCOCC4)c(F)c3)cc2)nc1N1CCOCC1` [MTR-0242, 1-(3-Fluoro-4-morpholin-4-yl-phenyl)-3-[4-(5-methoxy-4-morpholin-4-yl-pyrimidin-2-yl)-phenyl]-urea], 96.3%; to `COc1cnc(-c2ccc(NC(=O)Nc3ccc(N4CCSCC4)cc3)cc2)nc1N1CCOCC1` [MTR-0262, 1-[4-(5-Methoxy-4-morpholin-4-yl-pyrimidin-2-yl)-phenyl]-3-(4-thiomorpholin-4-yl-phenyl)-urea], 56.3%. Regarding `CSc1c(Cl)nc(-c2ccc(NC(=O)Nc3ccncc3)cc2)nc1N1CCOCC1` [MTR-0469, 1-[4-(4-Chloro-5-methylsulfanyl-6-morpholin-4-yl-pyrimidin-2-yl)-phenyl]-3-pyridin-4-yl-urea], the inhibition at 0.5 µM is 81.7%. Regarding `CSc1c(Cl)nc(-c2ccc(NC(=O)Nc3ccc(N4CCOCC4)c(F)c3)cc2)nc1N1CCOCC1` [MTR-0211, 1-[4-(4-Chloro-5-methylsulfanyl-6-morpholin-4-yl-pyrimidin-2-yl)-phenyl]-3-(3-fluoro-4-morpholin-4-yl-phenyl)-urea], the inhibition at 0.5 µM stood at 42%. Still for that read-out and setting: to `COc1cnc(-c2ccc(NC(=O)Nc3ccc(N4CCOCC4=O)cc3)cc2)nc1N1CCOCC1` [MTR-0241, 1-[4-(5-Methoxy-4-morpholin-4-yl-pyrimidin-2-yl)-phenyl]-3-[4-(3-oxo-morpholin-4-yl)-phenyl]-urea] belongs 94.8%; to `C[S+]([O-])c1cnc(-c2ccc(NC(=O)Nc3ccc(N4CCOCC4=O)cc3)cc2)nc1N1CCOCC1` (stereo not shown) [MTR-0401, 1-[4-(5-Methanesulfinyl-4-morpholin-4-yl-pyrimidin-2-yl)-phenyl]-3-[4-(3-oxo-morpholin-4-yl)-phenyl]-urea], 41.7%; to `CSc1cnc(-c2ccc(NC(=O)Nc3cccnc3)cc2)nc1N1CCOCC1` [MTR-0225, 1-[4-(5-Methylsulfanyl-4-morpholin-4-yl-pyrimidin-2-yl)-phenyl]-3-pyridin-3-yl-urea], 43.8%.

Regarding `CSc1c(Cl)nc(-c2ccc(NC(=O)Nc3ccc(S(N)(=O)=O)cc3)cc2F)nc1N1CCOCC1` [MTR-0412, 4-{3-[4-(4-Chloro-5-methylsulfanyl-6-morpholin-4-yl-pyrimidin-2-yl)-3-fluoro-phenyl]-ureido}-benzenesulfonamide], the inhibition at 0.5 µM is 82.7%. With `CCOC(=O)c1nc(-c2ccc(NC(=O)Nc3ccc(N4CCOCC4=O)cc3)cc2)nc(N2CCOCC2)c1OCC` [MTR-0222, 5-Ethoxy-6-morpholin-4-yl-2-(4-{3-[4-(3-oxo-morpholin-4-yl)-phenyl]-ureido}-phenyl)-pyrimidine-4-carboxylic acid ethyl ester], the inhibition at 0.5 µM was 44.3%. The same measure, in the same setting: to `CSc1cnc(-c2ccc(NC(=O)Nc3ccc(N4CCOCC4)c(F)c3)cc2)nc1N1CCOCC1` [MTR-0226, 1-(3-Fluoro-4-morpholin-4-yl-phenyl)-3-[4-(5-methylsulfanyl-4-morpholin-4-yl-pyrimidin-2-yl)-phenyl]-urea] belongs 45.7%; to `CSc1c(Cl)nc(-c2ccc(NC(=O)Nc3ccc(C(=O)N4CCC(N(C)C)CC4)cc3)cc2)nc1N1CCOCC1` [MTR-0436, 1-[4-(4-Chloro-5-methylsulfanyl-6-morpholin-4-yl-pyrimidin-2-yl)-phenyl]-3-[4-(4-dimethylamino-piperidine-1-carbonyl)-phenyl]-urea], 71.5%; to `CCOC(=O)c1nc(-c2ccc(NC(=O)Nc3ccc(C(N)=O)cc3)cc2)nc(N2CCOCC2)c1OCC` [MTR-0244, 2-{4-[3-(4-Carbamoyl-phenyl)-ureido]-phenyl}-5-ethoxy-6-morpholin-4-yl-pyrimidine-4-carboxylic acid ethyl ester], 60%. On the same count and under the same terms, the same measure for `CSc1cnc(-c2ccc(NC(=O)Nc3ccc(C(=O)N4CCOCC4)cc3)cc2)nc1N1CCOCC1` [MTR-0461, 1-[4-(5-Methylsulfanyl-4-morpholin-4-yl-pyrimidin-2-yl)-phenyl]-3-[4-(morpholine-4-carbonyl)-phenyl]-urea]: 93.4%; for `CCOc1cnc(-c2ccc(NC(=O)Nc3ccc(NS(C)(=O)=O)cc3)cc2)nc1N1CCOCC1` [MTR-0394, N-(4-{3-[4-(5-Ethoxy-4-morpholin-4-yl-pyrimidin-2-yl)-phenyl]-ureido}-phenyl)-methanesulfonamide]: 70.5%; for `CCOc1cnc(-c2ccc(NC(=O)Nc3ccc(C(N)=O)cc3)cc2)nc1N1CCOCC1` [MTR-0323, 4-{3-[4-(5-Ethoxy-4-morpholin-4-yl-pyrimidin-2-yl)-phenyl]-ureido}-benzamide]: 90.8%.

With `COc1cnc(-c2ccc(NC(=O)Nc3ccc(C(N)=O)cc3)cc2F)nc1N1CCOCC1` [MTR-0407, 4-{3-[3-Fluoro-4-(5-methoxy-4-morpholin-4-yl-pyrimidin-2-yl)-phenyl]-ureido}-benzamide], the inhibition at 0.5 µM came out at 63.4%.
